# From ChEMBL document CHEMBL4507258 (2021)
# What was measured:
# [1] = system: Tyrosine-protein kinase ABL1 (Homo sapiens), P00519 [F317I]; details: Compound concentration 1000.0 nM
# [2] = system: Tyrosine-protein kinase ABL1 (Homo sapiens), P00519 [M351T]; details: Compound concentration 1000.0 nM
# [3] = system: Tyrosine-protein kinase ABL1 (Homo sapiens), P00519 [Q252H]; details: Compound concentration 1000.0 nM
# [4] = molecular target: RAC-alpha serine/threonine-protein kinase (Homo sapiens) (UniProt P31749); details: Compound concentration 1000.0 nM
# [5] = molecular target: Mitogen-activated protein kinase kinase kinase 6 (Homo sapiens) (UniProt O95382); details: Compound concentration 1000.0 nM
# [6] = molecular target: Peripheral plasma membrane protein CASK (Homo sapiens) (UniProt O14936); details: Compound concentration 1000.0 nM
# [7] = molecular target: Cyclin-dependent kinase-like 2 (Homo sapiens) (UniProt Q92772); details: Compound concentration 1000.0 nM
# [8] = molecular target: Cyclin-dependent kinase-like 5 (Homo sapiens) (UniProt O76039); details: Compound concentration 1000.0 nM
# [9] = molecular target: Casein kinase I isoform alpha (Homo sapiens) (UniProt P48729); details: Compound concentration 1000.0 nM
# [10] = molecular target: Death-associated protein kinase 2 (Homo sapiens) (UniProt Q9UIK4); details: Compound concentration 1000.0 nM
# [11] = molecular target: Eukaryotic translation initiation factor 2-alpha kinase 1 (Homo sapiens) (UniProt Q9BQI3); details: Compound concentration 1000.0 nM
# [12] = molecular target: Ephrin type-A receptor 5 (Homo sapiens) (UniProt P54756); details: Compound concentration 1000.0 nM
# [13] = molecular target: Mitogen-activated protein kinase 15 (Homo sapiens) (UniProt Q8TD08); details: Compound concentration 1000.0 nM
# [14] = molecular target: Fibroblast growth factor receptor 4 (Homo sapiens) (UniProt P22455); details: Compound concentration 1000.0 nM
# [15] = molecular target: Glycogen synthase kinase-3 alpha (Homo sapiens) (UniProt P49840); details: Compound concentration 1000.0 nM
# [16] = molecular target: Inhibitor of nuclear factor kappa-B kinase subunit epsilon (Homo sapiens) (UniProt Q14164); details: Compound concentration 1000.0 nM
# [17] = molecular target: Mitogen-activated protein kinase kinase kinase 1 (Homo sapiens) (UniProt Q13233); details: Compound concentration 1000.0 nM
# [18] = system: Hepatocyte growth factor receptor (Homo sapiens), P08581 [Y1235D]; details: Compound concentration 1000.0 nM
# [19] = molecular target: Serine/threonine-protein kinase MRCK beta (Homo sapiens) (UniProt Q9Y5S2); details: Compound concentration 1000.0 nM
# [20] = molecular target: Serine/threonine-protein kinase 38-like (Homo sapiens) (UniProt Q9Y2H1); details: Compound concentration 1000.0 nM
# [21] = molecular target: Serine/threonine-protein kinase Nek11 (Homo sapiens) (UniProt Q8NG66); details: Compound concentration 1000.0 nM
# [22] = molecular target: Calcium-dependent protein kinase 1 (Plasmodium falciparum) (UniProt P62344); details: Compound concentration 1000.0 nM
# [23] = molecular target: Membrane-associated tyrosine- and threonine-specific cdc2-inhibitory kinase (Homo sapiens) (UniProt Q99640); details: Compound concentration 1000.0 nM
# [24] = molecular target: Protein kinase C delta type (Homo sapiens) (UniProt Q05655); details: Compound concentration 1000.0 nM
# [25] = molecular target: Serine/threonine-protein kinase D1 (Homo sapiens) (UniProt Q15139); details: Compound concentration 1000.0 nM
# [26] = molecular target: cAMP-dependent protein kinase catalytic subunit PRKX (Homo sapiens) (UniProt P51817); details: Compound concentration 1000.0 nM
# [27] = system: Proto-oncogene tyrosine-protein kinase receptor Ret (Homo sapiens), P07949 [M918T]; details: Compound concentration 1000.0 nM
# [28] = system: Proto-oncogene tyrosine-protein kinase receptor Ret (Homo sapiens), P07949 [V804M]; details: Compound concentration 1000.0 nM
# [29] = molecular target: Ribosomal protein S6 kinase alpha-4 (Homo sapiens) (UniProt O75676); details: Compound concentration 1000.0 nM
# [30] = molecular target: Ribosomal protein S6 kinase alpha-2 (Homo sapiens) (UniProt Q15349); details: Compound concentration 1000.0 nM
# [31] = molecular target: Uncharacterized serine/threonine-protein kinase SBK3 (Homo sapiens) (UniProt P0C264); details: Compound concentration 1000.0 nM
# [32] = molecular target: Tyrosine-protein kinase SYK (Homo sapiens) (UniProt P43405); details: Compound concentration 1000.0 nM
# [33] = molecular target: Serine/threonine-protein kinase TAO3 (Homo sapiens) (UniProt Q9H2K8); details: Compound concentration 1000.0 nM
# [34] = molecular target: Tyrosine-protein kinase receptor TYRO3 (Homo sapiens) (UniProt Q06418); details: Compound concentration 1000.0 nM
# [35] = molecular target: Serine/threonine-protein kinase WNK1 (Homo sapiens) (UniProt Q9H4A3); details: Compound concentration 1000.0 nM
# [36] = molecular target: Serine/threonine-protein kinase WNK3 (Homo sapiens) (UniProt Q9BYP7); details: Compound concentration 1000.0 nM
# [37] = molecular target: Tyrosine-protein kinase ZAP-70 (Homo sapiens) (UniProt P43403); details: Compound concentration 1000.0 nM
# [38] = molecular target: T1, D(4) dopamine receptor (Homo sapiens) (UniProt P21917); details: Compound concentration 10.0 uM
# T1 sequence (whole entry): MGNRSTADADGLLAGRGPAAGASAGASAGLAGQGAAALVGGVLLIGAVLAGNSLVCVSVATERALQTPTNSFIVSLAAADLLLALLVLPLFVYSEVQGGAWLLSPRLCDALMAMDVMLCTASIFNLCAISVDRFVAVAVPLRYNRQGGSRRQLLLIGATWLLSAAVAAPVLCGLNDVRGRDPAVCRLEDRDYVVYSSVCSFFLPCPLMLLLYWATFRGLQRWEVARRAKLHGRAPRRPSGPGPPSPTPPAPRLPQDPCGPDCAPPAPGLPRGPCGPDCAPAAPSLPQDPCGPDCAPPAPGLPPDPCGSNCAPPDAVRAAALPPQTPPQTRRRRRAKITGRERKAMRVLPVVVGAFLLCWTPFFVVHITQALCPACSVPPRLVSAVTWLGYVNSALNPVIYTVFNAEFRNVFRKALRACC
# [39] = molecular target: Sigma intracellular receptor 2 (Homo sapiens) (UniProt Q5BJF2); details: Compound concentration 10.0 uM
# Chain of Sigma intracellular receptor 2 (Homo sapiens) (Q5BJF2 whole entry): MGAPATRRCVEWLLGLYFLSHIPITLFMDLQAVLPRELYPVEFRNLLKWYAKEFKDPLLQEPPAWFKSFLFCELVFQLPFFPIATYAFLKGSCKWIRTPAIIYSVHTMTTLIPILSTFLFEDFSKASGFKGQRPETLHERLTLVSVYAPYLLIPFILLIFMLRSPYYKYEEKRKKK
# Chain of Mitogen-activated protein kinase 15 (Homo sapiens) (Q8TD08 whole entry): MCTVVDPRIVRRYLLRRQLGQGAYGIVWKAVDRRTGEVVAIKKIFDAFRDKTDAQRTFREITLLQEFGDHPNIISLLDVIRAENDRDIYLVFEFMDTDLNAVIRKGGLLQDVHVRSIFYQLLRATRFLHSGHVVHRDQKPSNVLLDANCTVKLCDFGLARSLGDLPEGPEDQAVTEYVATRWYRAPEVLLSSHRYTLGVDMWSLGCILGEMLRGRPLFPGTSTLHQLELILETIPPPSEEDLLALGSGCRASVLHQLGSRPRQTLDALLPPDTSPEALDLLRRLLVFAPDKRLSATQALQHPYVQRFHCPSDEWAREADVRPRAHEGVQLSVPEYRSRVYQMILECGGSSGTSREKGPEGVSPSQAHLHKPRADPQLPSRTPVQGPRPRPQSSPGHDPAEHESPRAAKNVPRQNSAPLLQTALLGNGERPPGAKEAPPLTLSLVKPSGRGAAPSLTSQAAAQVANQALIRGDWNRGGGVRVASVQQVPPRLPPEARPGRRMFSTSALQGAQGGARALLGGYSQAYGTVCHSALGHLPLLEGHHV
# Chain of Proto-oncogene tyrosine-protein kinase receptor Ret (Homo sapiens), P07949 [V804M] (P07949 whole entry V804M): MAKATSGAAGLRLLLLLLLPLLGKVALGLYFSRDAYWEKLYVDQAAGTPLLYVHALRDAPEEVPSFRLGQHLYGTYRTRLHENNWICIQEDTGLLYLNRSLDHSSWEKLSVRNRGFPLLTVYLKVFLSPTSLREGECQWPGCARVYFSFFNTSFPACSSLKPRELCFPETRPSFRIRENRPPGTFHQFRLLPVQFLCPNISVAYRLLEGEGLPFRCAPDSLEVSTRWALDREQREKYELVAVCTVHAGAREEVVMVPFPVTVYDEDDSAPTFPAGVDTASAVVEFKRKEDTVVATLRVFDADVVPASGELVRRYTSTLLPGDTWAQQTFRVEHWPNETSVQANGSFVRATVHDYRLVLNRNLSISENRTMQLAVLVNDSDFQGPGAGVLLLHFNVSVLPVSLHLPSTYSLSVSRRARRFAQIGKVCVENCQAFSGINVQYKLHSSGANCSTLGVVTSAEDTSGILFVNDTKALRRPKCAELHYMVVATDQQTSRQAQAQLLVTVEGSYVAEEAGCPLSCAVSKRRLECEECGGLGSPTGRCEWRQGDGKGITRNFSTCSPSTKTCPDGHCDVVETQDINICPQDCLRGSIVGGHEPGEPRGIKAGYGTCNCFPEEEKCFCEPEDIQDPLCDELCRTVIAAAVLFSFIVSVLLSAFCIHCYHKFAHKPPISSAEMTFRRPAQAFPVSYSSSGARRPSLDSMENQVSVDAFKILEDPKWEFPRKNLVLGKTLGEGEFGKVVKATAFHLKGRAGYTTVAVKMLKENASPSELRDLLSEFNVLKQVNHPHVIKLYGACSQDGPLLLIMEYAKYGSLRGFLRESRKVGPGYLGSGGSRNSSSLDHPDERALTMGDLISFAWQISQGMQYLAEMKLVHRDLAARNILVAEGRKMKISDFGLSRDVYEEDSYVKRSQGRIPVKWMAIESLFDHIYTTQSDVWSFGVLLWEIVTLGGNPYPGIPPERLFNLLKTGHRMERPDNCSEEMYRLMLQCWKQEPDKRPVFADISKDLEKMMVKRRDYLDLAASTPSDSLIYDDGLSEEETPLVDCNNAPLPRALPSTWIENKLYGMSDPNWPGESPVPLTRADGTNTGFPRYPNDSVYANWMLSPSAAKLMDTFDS
# Chain of Eukaryotic translation initiation factor 2-alpha kinase 1 (Homo sapiens) (Q9BQI3 whole entry): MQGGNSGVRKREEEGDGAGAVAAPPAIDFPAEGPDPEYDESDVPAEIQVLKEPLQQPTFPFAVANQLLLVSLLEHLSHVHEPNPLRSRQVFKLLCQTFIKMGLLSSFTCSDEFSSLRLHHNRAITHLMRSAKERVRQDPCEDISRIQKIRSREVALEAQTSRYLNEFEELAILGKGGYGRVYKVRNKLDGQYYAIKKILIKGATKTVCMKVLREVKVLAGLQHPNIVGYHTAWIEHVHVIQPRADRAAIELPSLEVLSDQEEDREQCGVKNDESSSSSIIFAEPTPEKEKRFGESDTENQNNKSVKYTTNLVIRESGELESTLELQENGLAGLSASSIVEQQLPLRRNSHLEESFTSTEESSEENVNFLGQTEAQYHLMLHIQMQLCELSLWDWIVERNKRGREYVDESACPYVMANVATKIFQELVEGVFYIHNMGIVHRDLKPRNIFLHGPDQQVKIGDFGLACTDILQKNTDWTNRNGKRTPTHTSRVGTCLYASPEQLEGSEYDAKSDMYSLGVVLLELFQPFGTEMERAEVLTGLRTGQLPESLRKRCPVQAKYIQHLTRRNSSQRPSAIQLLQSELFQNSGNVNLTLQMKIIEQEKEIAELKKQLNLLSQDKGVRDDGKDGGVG
# Chain of Serine/threonine-protein kinase MRCK beta (Homo sapiens) (Q9Y5S2 whole entry): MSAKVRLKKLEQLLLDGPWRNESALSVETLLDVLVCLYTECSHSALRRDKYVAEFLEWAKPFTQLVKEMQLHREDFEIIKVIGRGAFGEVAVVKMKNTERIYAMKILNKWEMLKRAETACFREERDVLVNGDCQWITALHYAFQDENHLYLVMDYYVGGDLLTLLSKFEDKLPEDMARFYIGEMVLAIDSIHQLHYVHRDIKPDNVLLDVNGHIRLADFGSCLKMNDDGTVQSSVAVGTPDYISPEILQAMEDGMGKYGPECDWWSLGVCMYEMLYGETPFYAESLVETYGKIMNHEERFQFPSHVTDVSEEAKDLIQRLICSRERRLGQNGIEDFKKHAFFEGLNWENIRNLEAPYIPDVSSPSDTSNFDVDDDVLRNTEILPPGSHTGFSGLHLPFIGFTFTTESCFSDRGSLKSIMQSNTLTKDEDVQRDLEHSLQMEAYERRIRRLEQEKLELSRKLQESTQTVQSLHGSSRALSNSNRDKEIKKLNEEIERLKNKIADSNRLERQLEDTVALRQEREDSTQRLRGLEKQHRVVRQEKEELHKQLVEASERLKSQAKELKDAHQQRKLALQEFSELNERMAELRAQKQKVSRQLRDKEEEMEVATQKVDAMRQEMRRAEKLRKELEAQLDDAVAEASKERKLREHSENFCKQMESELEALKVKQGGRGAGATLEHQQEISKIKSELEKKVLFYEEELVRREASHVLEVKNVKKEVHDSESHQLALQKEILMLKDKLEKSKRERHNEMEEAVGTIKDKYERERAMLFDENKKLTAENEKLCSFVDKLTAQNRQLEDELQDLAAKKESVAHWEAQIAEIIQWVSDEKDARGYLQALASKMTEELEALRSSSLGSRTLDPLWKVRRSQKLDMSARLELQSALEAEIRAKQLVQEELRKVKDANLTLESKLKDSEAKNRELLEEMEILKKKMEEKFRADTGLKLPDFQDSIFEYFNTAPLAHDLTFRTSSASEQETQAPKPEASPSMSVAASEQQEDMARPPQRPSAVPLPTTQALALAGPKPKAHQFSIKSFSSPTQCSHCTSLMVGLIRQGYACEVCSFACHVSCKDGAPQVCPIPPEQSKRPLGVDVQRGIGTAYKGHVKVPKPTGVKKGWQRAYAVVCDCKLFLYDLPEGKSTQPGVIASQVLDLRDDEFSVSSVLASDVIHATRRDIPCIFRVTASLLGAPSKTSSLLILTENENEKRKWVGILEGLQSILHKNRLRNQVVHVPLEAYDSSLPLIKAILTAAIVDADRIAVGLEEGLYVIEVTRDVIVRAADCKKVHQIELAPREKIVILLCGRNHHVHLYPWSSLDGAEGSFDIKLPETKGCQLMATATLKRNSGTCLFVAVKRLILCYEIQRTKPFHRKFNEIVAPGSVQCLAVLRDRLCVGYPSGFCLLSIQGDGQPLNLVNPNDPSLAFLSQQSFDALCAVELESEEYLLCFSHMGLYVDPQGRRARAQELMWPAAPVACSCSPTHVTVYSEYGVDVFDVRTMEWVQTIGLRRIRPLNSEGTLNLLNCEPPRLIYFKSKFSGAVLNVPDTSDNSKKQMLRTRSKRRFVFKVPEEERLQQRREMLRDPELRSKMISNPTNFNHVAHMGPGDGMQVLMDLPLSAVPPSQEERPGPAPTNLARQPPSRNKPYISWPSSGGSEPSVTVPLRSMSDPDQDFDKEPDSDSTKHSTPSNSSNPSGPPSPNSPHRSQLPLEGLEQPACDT
# Chain of Serine/threonine-protein kinase TAO3 (Homo sapiens) (Q9H2K8 whole entry): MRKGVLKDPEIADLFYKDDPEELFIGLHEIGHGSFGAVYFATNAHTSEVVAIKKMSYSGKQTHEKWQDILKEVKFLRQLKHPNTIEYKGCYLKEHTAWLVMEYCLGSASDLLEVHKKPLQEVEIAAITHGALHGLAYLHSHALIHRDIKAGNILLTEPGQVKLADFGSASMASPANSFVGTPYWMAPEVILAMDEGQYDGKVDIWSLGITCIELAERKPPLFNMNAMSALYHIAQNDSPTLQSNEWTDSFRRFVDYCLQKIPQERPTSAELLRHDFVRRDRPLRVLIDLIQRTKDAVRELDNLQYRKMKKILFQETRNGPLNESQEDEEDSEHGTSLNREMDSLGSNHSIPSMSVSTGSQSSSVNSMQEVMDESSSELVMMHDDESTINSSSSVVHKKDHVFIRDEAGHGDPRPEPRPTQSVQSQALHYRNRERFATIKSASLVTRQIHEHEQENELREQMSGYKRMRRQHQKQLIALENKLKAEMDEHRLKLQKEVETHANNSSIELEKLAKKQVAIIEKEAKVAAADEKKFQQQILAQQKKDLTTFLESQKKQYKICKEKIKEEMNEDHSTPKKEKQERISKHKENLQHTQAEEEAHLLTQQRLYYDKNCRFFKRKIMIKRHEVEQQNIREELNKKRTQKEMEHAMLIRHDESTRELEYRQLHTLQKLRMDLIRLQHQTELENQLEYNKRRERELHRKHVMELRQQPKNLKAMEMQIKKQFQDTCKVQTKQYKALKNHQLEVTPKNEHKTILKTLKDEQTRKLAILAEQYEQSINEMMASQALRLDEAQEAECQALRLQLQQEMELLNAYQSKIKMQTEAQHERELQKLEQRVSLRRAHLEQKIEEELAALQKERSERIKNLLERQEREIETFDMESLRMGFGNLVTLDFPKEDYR
SMILES,residual activity [1],residual activity [2],residual activity [3],residual activity [4],residual activity [5],residual activity [6],residual activity [7],residual activity [8],residual activity [9],residual activity [10],residual activity [11],residual activity [12],residual activity [13],residual activity [14],residual activity [15],residual activity [16],residual activity [17],residual activity [18],residual activity [19],residual activity [20],further results
CCCCN(CCCC)C(=O)CN1C[C@@H](c2cc(OC)c3c(c2)OCO3)[C@H](C(=O)O)[C@H]1CC(C)(C)CCC [A-545],100%,100%,100%,85.7%,100%,90.5%,39.2%,100%,99.1%,99.6%,100%,81.9%,100%,95.8%,79.9%,89.7%,100%,100%,100%,92.4%,residual activity [21]: 100%; residual activity [22]: 86.9%; residual activity [23]: 100%; residual activity [24]: 98.2%; residual activity [25]: 100%; residual activity [26]: 87.7%; residual activity [27]: 100%; residual activity [28]: 82.4%; residual activity [29]: 100%; residual activity [30]: 84.7%; residual activity [31]: 100%; residual activity [32]: 100%; residual activity [33]: 67.9%; residual activity [34]: 97.1%; residual activity [35]: 96.8%; residual activity [36]: 65.5%; residual activity [37]: 98.5%; inhibition [38]: 87.1%; inhibition [39]: 41.3%
CCCCN(CCCC)C(=O)CN1C[C@H](c2cc(OC)c3c(c2)OCO3)[C@@H](C(=O)O)[C@@H]1CC(C)(C)CCC [ABT-546],98.5%,96.9%,100%,100%,81.7%,70%,100%,71.4%,98.1%,100%,100%,100%,100%,100%,92.3%,80.9%,100%,100%,100%,100%,residual activity [21]: 85.8%; residual activity [22]: 82%; residual activity [23]: 100%; residual activity [24]: 100%; residual activity [25]: 79.4%; residual activity [26]: 100%; residual activity [27]: 100%; residual activity [28]: 100%; residual activity [29]: 100%; residual activity [30]: 100%; residual activity [31]: 100%; residual activity [32]: 100%; residual activity [33]: 63.2%; residual activity [34]: 100%; residual activity [35]: 72.9%; residual activity [36]: 100%; residual activity [37]: 70.1%; inhibition [38]: 21.7%; inhibition [39]: 48.5%
